According to ChEMBL document CHEMBL5096145, “Evaluation of imidazo[2,1-b]thiazole-based anticancer agents in one decade (2011-2020): Current status and future prospects” (Bioorg Med Chem, 2021):

Tests used:
A-375 [1] = experiment: Antiproliferative activity against human A375 cells measured after 48 hrs by MTT assay; assay type: functional, cell-based; settings: A-375, 48 h
UACC-62 = experiment: Antiproliferative activity against human UACC-62 cells measured after 48 hrs by MTT assay; assay type: functional, cell-based; settings: UACC-62, 48 h
MDA-MB-435 = experiment: Antiproliferative activity against human MDA-MB-435 cells measured after 48 hrs by MTT assay; assay type: functional, cell-based; settings: MDA-MB-435, 48 h
A-375 [2] = experiment: Cytotoxicity against human A-375 cells by MTT assay; assay type: functional, cell-based
OVCAR-3 = experiment: Anticancer activity against human OVCAR-3 cells incubated for 48 hrs by SRB staining assay; assay type: functional
SK-MEL-28 = experiment: Antiproliferative activity against human SK-MEL-28 cells measured after 48 hrs by MTT assay; assay type: functional, cell-based; settings: SK-MEL-28, 48 h
L02 = experiment: Cytotoxicity against human HL7702 cells expressing EGFR assessed as reduction in cell viability incubated for 24 hrs by MTT assay; assay type: functional, cell-based; settings: L02, 24 h
HeLa = experiment: Cytotoxicity against human HeLa cells expressing EGFR assessed as reduction in cell viability incubated for 24 hrs by MTT assay; assay type: functional, cell-based
HepG2 = experiment: Cytotoxicity against human HepG2 cells expressing EGFR assessed as reduction in cell viability incubated for 24 hrs by MTT assay; assay type: functional, cell-based; settings: HepG2, 24 h
HUVEC = experiment: Cytotoxicity against HUVEC expressing EGFR assessed as reduction in cell viability incubated for 24 hrs by MTT assay; assay type: functional, cell-based; settings: Homo sapiens
MDA-MB-231 [3] = experiment: Induction of cell cycle arrest in human MDA-MB-231 cells assessed as accumulation of cells at G0/G1 phase measured at 1 uM incubated for 24 hrs by flow cytometric analysis relative to control; assay type: functional
A549 [4] = experiment: Anticancer activity against human A549 cells incubated for 24 hrs by MTT assay; assay type: functional, cell-based; settings: A549, 24 h
A549 [5] = experiment: Induction of apoptosis in human A549 cells assessed as increase in caspase-3 level at 0.5 uM measured after 48 hrs by ELISA method relative to control; assay type: functional
A549 [6] = experiment: Induction of apoptosis in human A549 cells assessed as increase in caspase-3 level at 1 uM measured after 48 hrs by ELISA method relative to control (RVB = 9.1 %); assay type: functional
Tubulin = experiment: Inhibition of tubulin polymerization (unknown origin) by fluorescence based assay; assay type: protein-complex assay, Homo sapiens
HT-29 = experiment: Cytotoxicity against human HT-29 cells assessed as reduction in cell viability relative to control; assay type: functional
DU-145 [7] = experiment: Cytotoxicity against human DU-145 cells assessed as reduction in cell viability; assay type: functional, cell-based
DU-145 [8] = experiment: Potency index, ratio of sorafenib IC50 to test compound IC50 for cytotoxicity against human DU-145 cells; assay type: functional
MDA-MB-231 [9] = experiment: Antiproliferative activity human MDA-MB-231 cells; assay type: functional, cell-based
A549 [10] = experiment: Antiproliferative activity human A549 cells; assay type: functional, cell-based
MCF7 = experiment: Antiproliferative activity human MCF7 cells; assay type: functional, cell-based
MDA-MB-231 [11] = experiment: Antiproliferative activity against human MDA-MB-231 cells measured after 48 hrs by MTT assay; assay type: functional, cell-based; settings: MDA-MB-231, 48 h
OVCAR-5 = experiment: Cytotoxicity against human OVCAR-5 cells assessed as inhibition of cell growth; assay type: functional, cell-based
HCT-116 = experiment: Anticancer activity against human HCT-116 cells measured after 48 hrs by MTT assay; assay type: functional, cell-based; settings: HCT-116, 48 h
[12] = tested on: Serine/threonine-protein kinase B-raf (Homo sapiens), P15056 [V600E]; experiment: Inhibition of human BRAF V600E mutant using MEK1 as substrate in presence of ATP relative to control; settings: concentration not given here
Serine/threonine-protein kinase B-raf (Homo sapiens), P15056 [V600E], sequence (P15056 whole entry V600E): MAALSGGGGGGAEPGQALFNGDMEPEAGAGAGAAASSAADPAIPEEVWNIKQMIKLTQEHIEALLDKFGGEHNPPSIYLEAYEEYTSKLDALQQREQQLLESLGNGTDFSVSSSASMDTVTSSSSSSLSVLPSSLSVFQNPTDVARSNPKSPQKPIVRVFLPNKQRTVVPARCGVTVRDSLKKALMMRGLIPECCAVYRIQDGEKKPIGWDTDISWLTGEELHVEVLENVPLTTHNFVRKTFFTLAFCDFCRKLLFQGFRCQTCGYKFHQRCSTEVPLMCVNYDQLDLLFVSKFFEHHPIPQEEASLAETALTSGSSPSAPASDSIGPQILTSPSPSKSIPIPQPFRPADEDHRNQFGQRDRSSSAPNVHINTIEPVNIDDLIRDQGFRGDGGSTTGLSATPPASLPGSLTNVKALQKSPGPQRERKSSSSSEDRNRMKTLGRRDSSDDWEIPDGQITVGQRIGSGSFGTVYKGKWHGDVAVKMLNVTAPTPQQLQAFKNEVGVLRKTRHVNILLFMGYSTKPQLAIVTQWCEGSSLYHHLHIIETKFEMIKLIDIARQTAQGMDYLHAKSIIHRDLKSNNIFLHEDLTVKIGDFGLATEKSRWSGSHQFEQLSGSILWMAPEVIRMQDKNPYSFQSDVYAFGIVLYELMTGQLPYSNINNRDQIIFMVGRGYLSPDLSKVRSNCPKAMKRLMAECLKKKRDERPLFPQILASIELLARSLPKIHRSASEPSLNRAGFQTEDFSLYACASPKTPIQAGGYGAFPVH

Breast carcinoma cell = experiment: Cytotoxicity against human breast cancer cell line assessed as reduction in cell viability by MTT assay relative to control; assay type: functional
[13] = target: Serine/threonine-protein kinase B-raf (Homo sapiens, UniProt P15056, V600E); experiment: Inhibition of human BRAF V600E mutant using MEK1 as substrate in presence of ATP
Serine/threonine-protein kinase B-raf, sequence (P15056 2-766 V600E limits assumed): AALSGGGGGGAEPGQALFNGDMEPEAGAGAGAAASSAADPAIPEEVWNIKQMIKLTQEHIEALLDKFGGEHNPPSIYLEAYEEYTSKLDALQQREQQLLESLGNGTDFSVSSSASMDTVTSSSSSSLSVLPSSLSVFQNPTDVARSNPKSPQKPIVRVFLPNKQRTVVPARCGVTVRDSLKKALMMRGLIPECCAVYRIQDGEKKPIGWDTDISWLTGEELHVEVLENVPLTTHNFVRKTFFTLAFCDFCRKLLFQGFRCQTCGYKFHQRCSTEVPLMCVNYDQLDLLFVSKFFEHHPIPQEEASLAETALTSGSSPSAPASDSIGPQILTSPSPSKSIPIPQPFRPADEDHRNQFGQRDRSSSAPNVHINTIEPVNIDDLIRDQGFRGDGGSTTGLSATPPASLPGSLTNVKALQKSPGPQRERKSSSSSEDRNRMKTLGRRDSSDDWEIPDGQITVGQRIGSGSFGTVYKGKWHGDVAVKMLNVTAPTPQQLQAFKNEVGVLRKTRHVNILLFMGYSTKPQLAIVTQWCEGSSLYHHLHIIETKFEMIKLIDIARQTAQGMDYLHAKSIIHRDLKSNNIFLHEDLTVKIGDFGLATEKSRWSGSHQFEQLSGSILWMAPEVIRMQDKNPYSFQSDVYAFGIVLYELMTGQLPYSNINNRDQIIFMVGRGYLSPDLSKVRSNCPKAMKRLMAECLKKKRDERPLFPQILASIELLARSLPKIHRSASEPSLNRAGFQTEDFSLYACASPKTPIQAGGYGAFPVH

[14] = tested on: Non-small cell lung cancer cell line; experiment: Cytotoxicity against human non-small cell lung cancer cell line assessed as reduction in cell viability by MTT assay relative to control; assay type: functional
[15] = target: Serine/threonine-protein kinase B-raf (Homo sapiens) (UniProt P15056); experiment: Inhibition of wildtype BRAF (unknown origin) using MEK1 as substrate in presence of ATP relative to control; settings: concentration not given here
Serine/threonine-protein kinase B-raf (Homo sapiens), sequence (P15056 whole entry): as the sequence (P15056 whole entry V600E) above, with E600V counted along it

[16] = Cytotoxicity against human Colon carcinoma cells assessed as reduction in cell viability by MTT assay relative to control; assay type: functional
[17] = Cytotoxicity against human L132 cells by MTT assay; assay type: toxicity, cell-based
Leukemic tumor cell line = experiment: Cytotoxicity against human leukemic tumor cell line assessed as reduction in cell viability by MTT assay relative to control; assay type: functional
Ovarian cancer cell line = experiment: Cytotoxicity against human ovarian cancer cell line assessed as reduction in cell viability by MTT assay relative to control; assay type: functional
Renal cancer cell line = experiment: Cytotoxicity against human renal cancer cell line assessed as reduction in cell viability by MTT assay relative to control; assay type: functional
Melanoma tumor cell line = experiment: Cytotoxicity against human melanoma tumor cell line assessed as reduction in cell viability by MTT assay relative to control; assay type: functional
Prostatic carcinoma cell = experiment: Cytotoxicity against human prostatic carcinoma cell assessed as reduction in cell viability by MTT assay relative to control; assay type: functional
CNS carcinoma cell = experiment: Cytotoxicity against human CNS carcinoma cells assessed as reduction in cell viability by MTT assay relative to control; assay type: functional

Compound: CNC(=O)c1cc(Oc2ccc(NC(=O)Nc3ccc(Cl)c(C(F)(F)F)c3)cc2)ccn1 [SORAFENIB]
- IC50 (A-375 [1]): 1950 nM
- IC50 (UACC-62): 1950 nM
- IC50 (MDA-MB-435): 1950 nM
- IC50 (A-375 [2]): 10.3 µM
- GI50 (OVCAR-3): 2950 nM
- IC50 (SK-MEL-28): 1950 nM

Compound: O=C(Cc1csc2nc3ccccc3n12)Nc1cccc2ccccc12
- IC50 (L02): > 100 µM
- IC50 (HeLa): 2490 nM
- IC50 (HepG2): > 100 µM
- IC50 (HUVEC): > 100 µM

Compound: CCCS(=O)(=O)Nc1ccc(F)c(C(=O)c2c[nH]c3ncc(-c4ccc(Cl)cc4)cc23)c1F [VEMURAFENIB]
- IC50 (A-375 [2]): 5.9 µM

Compound: COc1ccc(-c2nc3sccn3c2/C=N/NC(=O)c2cccc(O)c2)cc1
- Activity (MDA-MB-231 [3]): 72.4%

Compound: COc1ccc(-c2sc3nc(-c4ccc(F)cc4)c(/C=C/C(=O)c4ccccn4)n3c2-c2ccc(OC)cc2)cc1
- IC50 (A549 [4]): 640 nM
- Activity (A549 [5]): 64.14%
- Activity (A549 [6]): 69.07%
- IC50 (Tubulin): 2350 nM

Compound: COc1ccc(C(=O)NCCNc2nccc(-c3c(-c4ccc(F)cc4)nc4sccn34)n2)cc1
- inhibition (INH) (HT-29): 85.38%
- IC50 (DU-145 [7]): 1040 nM
- Ratio IC50 (DU-145 [8]): 3

Compound: O=C(/C=C\Nc1cnc2ccccc2c1)c1c(-c2ccccc2)nc2sccn12
- IC50 (MDA-MB-231 [9]): 4.6 µM
- IC50 (A549 [10]): 400 nM
- IC50 (MCF7): 4.6 µM

Compound: COc1ccc(C(=O)/C=C/c2cn3c(n2)sc2ccccc23)cc1
- IC50 (MDA-MB-231 [11]): 1200 nM

Compound: COc1ccc(-c2nc3sccn3c2/C=C/C(=O)c2cc(OC)c(OC)c(OC)c2)cc1
- IC50 (OVCAR-5): 1990 nM

Compound: C/C(=N\N=C1\S/C(=N\Nc2ccc(Br)cc2)C(=O)N1N)c1sc2nc(-c3ccc(C)cc3)cn2c1C
- IC50 (HCT-116): 1100 nM

Compound: COc1ccc2c(c1)sc1nc(/C=C/C(=O)c3ccc(OC)c(O)c3)cn12
- IC50 (MDA-MB-231 [11]): 1300 nM

Compound: O=[N+]([O-])c1cccc(-c2nc3sccn3c2-c2ccnc(NCCCNS(=O)(=O)c3cccc(F)c3)n2)c1
- inhibition [12]: 99.6%
- inhibition (INH) (Breast carcinoma cell): >80%
- IC50 [13]: 21 nM
- inhibition (INH) [14]: >80%
- inhibition [15]: 66.3%
- inhibition (INH) [16]: >80%
- IC50 [17]: 80 µM
- IC50 (A-375 [2]): 2.99 µM
- inhibition (INH) (Leukemic tumor cell line): >90%
- inhibition (INH) (Ovarian cancer cell line): >80%
- inhibition (INH) (Renal cancer cell line): >70%
- inhibition (INH) (Melanoma tumor cell line): 100%
- inhibition (INH) (Prostatic carcinoma cell): >90%
- inhibition (INH) (CNS carcinoma cell): 70%
